Measurements from patent US6525001B1, “Substituted pyrimidine and pyridine herbicides” (Mid-American Commercialization Corporation, priority 1997, dated 2003).

Experiments:
Format in all cases: in vivo
Set-up in all cases: key: 0 is no effect; 10 is complete control
rape (Brassica napus) = assay: Test B pre-/postemergence
Summary of the method: (§1)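 Seeds were planted and sprayed preemergence, while plants at 2 to 18 cm (1- to 4-leaf stage) were sprayed postemergence at the same time, with test chemical in a non-phytotoxic solvent mixture containing surfactant. After twelve to sixteen days in a greenhouse, injury was rated visually against untreated controls on a 0–10 scale.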

[1] = tested on: crabgrass (Digitaria sanguinalis); assay: Test B pre-/postemergence
Summary of the method: as §1

[2] = tested on: bedstraw (Galium aparine); assay: Test B pre-/postemergence
Summary of the method: as §1

[3] = tested on: broadleaf signalgrass (Brachiaria decumbens); assay: Test B pre-/postemergence
Summary of the method: as §1

[4] = tested on: purple nutsedge (Cyperus rotundus); assay: Test B pre-/postemergence
Summary of the method: as §1

soybean (Glycine max) = assay: Test B pre-/postemergence
Summary of the method: as §1

[5] = tested on: wheat (Triticum aestivum); assay: Test B pre-/postemergence
Summary of the method: as §1

[6] = tested on: giant foxtail (Setaria faberii); assay: Test B pre-/postemergence
Summary of the method: as §1

[7] = tested on: momingglory (Ipomoea hederacea); assay: Test B pre-/postemergence
Summary of the method: as §1

corn (Zea mays) = assay: Test B pre-/postemergence
Summary of the method: as §1

[8] = tested on: pigweed (Amaranthus retroflexus); assay: Test B pre-/postemergence
Summary of the method: as §1

[9] = tested on: sugar beet (Beta vulgaris); assay: Test B pre-/postemergence
Summary of the method: as §1

[10] = tested on: cocklebur (Xanthium strumarium); assay: Test B pre-/postemergence
Summary of the method: as §1

wild oat (Avena fatua) = assay: Test B pre-/postemergence
Summary of the method: as §1

[11] = tested on: blackgrass (Alopecurus myosuroides); assay: Test B pre-/postemergence
Summary of the method: as §1

[12] = tested on: velvetleaf (Abutilon theophrasti); assay: Test B pre-/postemergence
Summary of the method: as §1

[13] = tested on: duck salad (Heteranthera limosa); assay: Test B flood test
Summary of the method: (§2)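 Plants were grown to the 2-leaf stage before treatment with test chemical, then held in a greenhouse for twelve to sixteen days. Injury was visually rated against untreated controls on a 0–10 scale, where 0 is no effect and 10 is complete control.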

[14] = tested on: bamyardgrass (Echinochloa crus-galli); assay: Test B flood test
Summary of the method: as §2

[15] = tested on: smallflower flatsedge (Cyperus difformis); assay: Test B flood test
Summary of the method: as §2

rice (Oryza sativa) = assay: Test B flood test
Summary of the method: as §2

[16] = Preemergence, Rate 62 g/ha, scale of 0 to 10
[17] = Rate 62 g/ha, Postemergence (flood test)
[18] = Rate 125 g/ha, Postemergence section (flood test species)
[19] = Rate 250 g/ha, Postemergence (flood test species)

COc1cnc(-n2ccc(C(F)(F)F)n2)nc1C(=O)c1cccc(C(F)(F)F)c1 [Compound 60]
3: Rape plant response rating (rape (Brassica napus); Rate 62 g/ha, Postemergence) | Rape plant response rating (rape (Brassica napus); Rate 125 g/ha, Postemergence) | Crabgrass plant response rating ([1]; Rate 125 g/ha, Postemergence) | Bedstraw plant response rating ([2]; Rate 125 g/ha, Postemergence) | Plant response rating, Bedstraw ([2]; Rate 250 g/ha, Postemergence) | Plant response rating, B. signalgrass ([3]; Rate 125 g/ha, Preemergence) | Plant response rating, B. signalgrass ([3]; Rate 250 g/ha, Postemergence) | Plant response rating, B. signalgrass ([3]; Rate 250 g/ha, Preemergence) | Wheat plant response rating ([5]; Rate 125 g/ha, Postemergence) | Plant response rating, Wheat ([5]; Rate 250 g/ha, Postemergence) | Plant response rating, Corn (corn (Zea mays); Rate 250 g/ha, Postemergence) | Cocklebur plant response rating ([10]; Rate 62 g/ha, Postemergence) | Cocklebur plant response rating ([10]; Rate 125 g/ha, Postemergence)
8: Sugarbeets plant response rating ([9]; Rate 62 g/ha, Postemergence) | Sugarbeets plant response rating ([9]; Rate 125 g/ha, Postemergence) | Plant response rating, Sugarbeets ([9]; Rate 125 g/ha, Preemergence)
2: Crabgrass plant response rating ([1]; Rate 62 g/ha, Postemergence) | Plant response rating, Crabgrass ([1]; Rate 125 g/ha, Preemergence) | Bedstraw plant response rating ([2]; Rate 62 g/ha, Postemergence) | B. signalgrass plant response rating ([3]; Rate 62 g/ha, Postemergence) | B. signalgrass plant response rating ([3]; Rate 62 g/ha, Preemergence) | B. signalgrass plant response rating ([3]; Rate 125 g/ha, Postemergence) | Soybean plant response rating (soybean (Glycine max); Rate 62 g/ha, Postemergence) | Soybean plant response rating (soybean (Glycine max); Rate 125 g/ha, Postemergence) | Plant response rating, Soybean (soybean (Glycine max); Rate 250 g/ha, Postemergence) | Wheat plant response rating ([5]; Rate 62 g/ha, Postemergence) | Plant response rating, Giant foxtail [6, 16] | Giant foxtail plant response rating ([6]; Rate 62 g/ha, Postemergence) | Giant foxtail plant response rating ([6]; Rate 125 g/ha, Postemergence) | Plant response rating, Giant foxtail ([6]; Rate 125 g/ha, Preemergence) | Plant response rating, Giant foxtail ([6]; Rate 250 g/ha, Postemergence) | Morningglory plant response rating ([7]; Rate 62 g/ha, Postemergence) | Plant response rating, Morningglory ([7]; Rate 125 g/ha, Preemergence) | Corn plant response rating (corn (Zea mays); Rate 62 g/ha, Postemergence) | Corn plant response rating (corn (Zea mays); Rate 125 g/ha, Postemergence) | Wild oats plant response rating (wild oat (Avena fatua); Rate 62 g/ha, Postemergence) | Wild oats plant response rating (wild oat (Avena fatua); Rate 125 g/ha, Postemergence) | Plant response rating, Wild oats (wild oat (Avena fatua); Rate 250 g/ha, Postemergence) | Plant response rating, Blackgrass ([11]; Rate 250 g/ha, Postemergence) | Plant response rating, Blackgrass ([11]; Rate 250 g/ha, Preemergence) | Velvetleaf plant response rating ([12]; Rate 62 g/ha, Postemergence) | Velvetleaf plant response rating ([12]; Rate 125 g/ha, Postemergence) | Plant response rating, Velvetleaf ([12]; Rate 250 g/ha, Postemergence) | Ducksalad plant response rating [13, 18] | Plant response rating, Ducksalad [13, 19] | Plant response rating, Barnyardgrass [14, 19]
10: Plant response rating, Redroot pigweed ([8]; Rate 250 g/ha, Preemergence)
7: Redroot pigweed plant response rating ([8]; Rate 125 g/ha, Postemergence) | Plant response rating, Redroot pigweed ([8]; Rate 250 g/ha, Postemergence)
5: Plant response rating, Giant foxtail ([6]; Rate 250 g/ha, Preemergence) | Plant response rating, Morningglory ([7]; Rate 250 g/ha, Preemergence) | Redroot pigweed plant response rating ([8]; Rate 62 g/ha, Postemergence) | S. Flatsedge plant response rating [15, 18]
1: Plant response rating, Rape (rape (Brassica napus); Rate 250 g/ha, Preemergence) | Plant response rating, Bedstraw ([2]; Rate 250 g/ha, Preemergence) | Plant response rating, Morningglory [7, 16] | Plant response rating, Blackgrass [11, 16] | Blackgrass plant response rating ([11]; Rate 62 g/ha, Postemergence) | Blackgrass plant response rating ([11]; Rate 125 g/ha, Postemergence) | Plant response rating, Blackgrass ([11]; Rate 125 g/ha, Preemergence) | Plant response rating, Velvetleaf [12, 16] | Plant response rating, Velvetleaf ([12]; Rate 125 g/ha, Preemergence) | Plant response rating, Velvetleaf ([12]; Rate 250 g/ha, Preemergence) | Ducksalad plant response rating [13, 17] | Barnyardgrass plant response rating [14, 17] | Barnyardgrass plant response rating [14, 18] | Plant response rating, Rice (rice (Oryza sativa); [19])
4: Plant response rating, Rape (rape (Brassica napus); Rate 250 g/ha, Postemergence) | Plant response rating, Crabgrass ([1]; Rate 250 g/ha, Postemergence) | Morningglory plant response rating ([7]; Rate 125 g/ha, Postemergence) | Plant response rating, Cocklebur ([10]; Rate 250 g/ha, Postemergence) | S. Flatsedge plant response rating [15, 17]
6: Plant response rating, Crabgrass ([1]; Rate 250 g/ha, Preemergence) | Plant response rating, Redroot pigweed [8, 16] | Plant response rating, Sugarbeets [9, 16] | Plant response rating, S. Flatsedge [15, 19]
9: Plant response rating, Morningglory ([7]; Rate 250 g/ha, Postemergence) | Plant response rating, Redroot pigweed ([8]; Rate 125 g/ha, Preemergence) | Plant response rating, Sugarbeets ([9]; Rate 250 g/ha, Postemergence) | Plant response rating, Sugarbeets ([9]; Rate 250 g/ha, Preemergence)
0: Plant response rating, Rape (rape (Brassica napus); [16]) | Plant response rating, Rape (rape (Brassica napus); Rate 125 g/ha, Preemergence) | Plant response rating, Crabgrass [1, 16] | Plant response rating, Bedstraw [2, 16] | Plant response rating, Bedstraw ([2]; Rate 125 g/ha, Preemergence) | Plant response rating, Nutsedge [4, 16] | Nutsedge plant response rating ([4]; Rate 62 g/ha, Postemergence) | Nutsedge plant response rating ([4]; Rate 125 g/ha, Postemergence) | Plant response rating, Nutsedge ([4]; Rate 125 g/ha, Preemergence) | Plant response rating, Nutsedge ([4]; Rate 250 g/ha, Postemergence) | Plant response rating, Soybean (soybean (Glycine max); [16]) | Plant response rating, Soybean (soybean (Glycine max); Rate 125 g/ha, Preemergence) | Plant response rating, Soybean (soybean (Glycine max); Rate 250 g/ha, Preemergence) | Plant response rating, Wheat [5, 16] | Plant response rating, Wheat ([5]; Rate 125 g/ha, Preemergence) | Plant response rating, Wheat ([5]; Rate 250 g/ha, Preemergence) | Plant response rating, Corn (corn (Zea mays); [16]) | Plant response rating, Corn (corn (Zea mays); Rate 125 g/ha, Preemergence) | Plant response rating, Corn (corn (Zea mays); Rate 250 g/ha, Preemergence) | Plant response rating, Cocklebur [10, 16] | Plant response rating, Cocklebur ([10]; Rate 125 g/ha, Preemergence) | Plant response rating, Cocklebur ([10]; Rate 250 g/ha, Preemergence) | Plant response rating, Wild oats (wild oat (Avena fatua); [16]) | Plant response rating, Wild oats (wild oat (Avena fatua); Rate 125 g/ha, Preemergence) | Plant response rating, Wild oats (wild oat (Avena fatua); Rate 250 g/ha, Preemergence) | Rice plant response rating (rice (Oryza sativa); [17]) | Rice plant response rating (rice (Oryza sativa); [18])
